In patent publication US20260337153A1, “IONIZABLE AMINE LIPIDS” (Intellia Therapeutics, Inc., priority 2023, published 2026):
Where “and” joins values, the source holds several entries; their conditions need not be identical. Identical values can stand only once. Like-named read-outs stand apart in the source and are kept apart here.

Legend:
[1] = LNP encapsulation efficiency of RNA (Ribogreen fluorescence assay); type: physicochemical; details: sgRNA:mRNA 1:2
Experimental: LNP compositions are analyzed for average particle size, polydispersity index (pdi), total RNA content, encapsulation efficiency of RNA, and zeta potential. LNP compositions may be further characterized by lipid analysis, AF4-MALS, NTA, and/or cryo-EM.
Encapsulation efficiency is calculated as (Total RNA−Free RNA)/Total RNA. A fluorescence-based assay (Ribogreen®, ThermoFisher Scientific) is used to determine total RNA concentration and free RNA. LNP samples are diluted appropriately with 1×TE buffer containing 0.2% Triton-X 100 to determine total RNA or 1×TE buffer to determine free RNA. Standard curves are prepared by utilizing the starting RNA solution used to make the compositions and diluted in 1×TE buffer+/−0.2% Triton-X 100. Diluted RiboGreen® dye (according to the manufacturer's instructions) is then added to each of the standards and samples and allowed to incubate for approximately 10 minutes at room temperature, in the absence of light. A SpectraMax M5 Microplate Reader (Molecular Devices) is used to read the samples with excitation, auto cutoff and emission wavelengths set to 488 nm, 515 nm, and 525 nm respectively. Total RNA and free RNA are determined from the appropriate standard curves. Alternatively, the total RNA concentration can be determined by a reverse-phase ion-pairing (RP-IP) HPLC method. Triton X-100 is used to disrupt the LNPs, releasing the RNA. The RNA is then separated from the lipid components chromatographically by RP-IP HPLC and quantified against a standard curve using UV absorbance at 260 nm.
In vivo editing efficiency for materials delivered with formulations including various amine lipid (or ionizable lipid) compounds in Experiments 1 through 14 as described in Tables 3 and 4 was assessed. Editing was measured using G000534 (SEQ ID NO: 5) which targets the rat TTR gene. Lipids described above were assessed for efficacy through in vivo editing experiments. LNPs were formulated at a 1:2 w/w ratio of sgRNA (SEQ ID NO: 5) and Cas9 mRNA (SEQ ID NO: 3). In Experiments 1 through 13, lipid components of the LNP are formulated in a molar ratio of 50% ionizable lipid, 38% cholesterol, 9% DSPC, and 3% PEG2K-DMG. In Experiment 14, lipid components of the LNP are formulated in a molar ratio of 50% ionizable lipid, 38% cholesterol, 9% DSPC, and 3% C13 Ether. The final LNPs used in different in vivo editing experiments were characterized to determine the encapsulation efficiency (% E), polydispersity index (PDI), and average particle size (Z-avg and number mean) according to the analytical methods provided above. The pKa values of each of the following ionizable lipids were also measured to be in the range of about 5.8 to about 7.6.
In vivo editing efficiency for materials delivered with formulations including various combinations of amine lipid (or ionizable lipid) and PEG lipid compounds was assessed as described in Tables 5 and 6. Editing was measured using G000534 (SEQ ID NO: 5) which targets the rat TTR gene. Lipids described above were assessed for efficacy through in vivo editing experiments. LNPs were formulated at a 1:2 w/w ratio of sgRNA (SEQ ID NO: 5) and Cas9 mRNA (SEQ ID NO:3). Lipid components of the LNP are formulated in a molar ratio of 50% ionizable lipid, 38% cholesterol, 9% DSPC, and 3% of various PEG lipids (e.g., PEG2K-DMG, C13 Ether, C14 Ether). The final LNPs used in different in vivo editing experiments were characterized to determine the encapsulation efficiency (% E), polydispersity index (PDI), and average particle size (Z-avg and number mean) according to the analytical methods provided above. The pKa values of each of the following ionizable lipids were also measured to be in the range of about 5.8 to about 7.6.
In vivo editing efficiency for materials delivered with formulations including various amine lipid (or ionizable lipid) compounds as described in Tables 7 and 8 was assessed. […]

[2] = pKa of unformulated amine lipid by TNS fluorescence; type: physicochemical; details: sodium phosphate buffer, unformulated amine lipid, TNS, read-out: Lipid pKa
In short: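 Unformulated amine lipid was diluted from ethanol stock to approx. 100 μM in 0.1 M sodium phosphate buffers spanning pH 4.5–9.0 with TNS. Fluorescence read at ex 321/em 448 nm; normalized data fitted sigmoidally to give pKa.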

[3] = Table 3, Experiments 1-13, LNP 50% ionizable lipid, 38% cholesterol, 9% DSPC, 3% PEG2K-DMG
[4] = LNP with 50% ionizable lipid, 38% cholesterol, 9% DSPC, 3% C13 Ether (LNP #1, Compound 53: 3% PEG2K-DMG instead)
[5] = additional ionizable lipids (53-61)
[6] = Table 3, Experiment 14, LNP with 3% C13 Ether

Row | % E (encapsulation efficiency) [1, 3] | pKa ([2]; Table 2) | Compound | also measured
1 | 100% | 7.1 | CCCCCCCCC(CCCCCCCC)OC(=O)CCCC(=O)OCC(COC(=O)CCCC(=O)OC(CCCCCCCC)CCCCCCCC)COC(=O)NCCN1CCCC1 [Compound 29, di(heptadecan-9-yl) O,O′-(2-((((2-(pyrrolidin-1-yl)ethyl)carbamoyl)oxy)methyl)propane-1,3-diyl) diglutarate] | 
2 | 96% | 6.27 | CCCCC/C=C\C/C=C\CCCCCCCC(=O)OCC(CCCCC(=O)OC(CCCC)CCCC)COC(=O)OCCCN(CC)CC (centres unmarked) [Compound 14, 2-((((3-(diethylamino)propoxy)carbonyl)oxy)methyl)-7-(nonan-5-yloxy)-7-oxoheptyl (9Z,12Z)-octadeca-9,12-dienoate] | 
3 | 97% | 6.47 | CCCCCCCCC(CCCCCCCC)OC(=O)CCCCCCC(=O)OCC(COC(=O)CCCCCCC(=O)OC(CCCCCCCC)CCCCCCCC)COC(=O)NCCN(CC)CC [Compound 52, O′1,O1-(2-((((2-(diethylamino)ethyl)carbamoyl)oxy)methyl)propane-1,3-diyl) 8,8′-di(heptadecan-9-yl) di(octanedioate)] | % E (encapsulation efficiency) [1, 4]: 97%; % E (encapsulation efficiency) ([1]; Table 7, LNP with 3% C13 Ether): 97%
4 | 98% | 6.11 | CCCCC/C=C\C/C=C\CCCCCCCC(=O)OCC(CCCCC(=O)OC(CCCCCCCC)CCCCCCCC)COC(=O)OCCCN(CC)CC (centres unmarked) [Compound 15, 2-((((3-(diethylamino)propoxy)carbonyl)oxy)methyl)-7-(heptadecan-9-yloxy)-7-oxoheptyl (9Z,12Z)-octadeca-9,12-dienoate] | 
5 | 99% | 6.66 | CCCCCCCCOC(CCC(=O)OCC(COC(=O)CCC(OCCCCCCCC)OCCCCCCCC)COC(=O)NCCN(CC)CC)OCCCCCCCC [Compound 22, 2-((((2-(diethylamino)ethyl)carbamoyl)oxy)methyl)propane-1,3-diyl bis(4,4-bis(octyloxy)butanoate)] | 
6 | 99% | 6.09 | CCCCC/C=C\C/C=C\CCCCCCCC(=O)OCC(CCCCCCCCC(=O)OC(CCCCCC)CCCCCC)COC(=O)OCCCN(CC)CC (centres unmarked) [Compound 19, 2-((((3-(diethylamino)propoxy)carbonyl)oxy)methyl)-11-oxo-11-(tridecan-7-yloxy)undecyl (9Z,12Z)-octadeca-9,12-dienoate] | 
7 | 87% and 90% |  | CCCCC/C=C\C/C=C\CCCCCCCC(=O)OCC(COC(=O)CCCC(=O)OC(CCCCCCCC)CCCCCCCC)COC(=O)NCCN(CC)CC (centres unmarked) [Compound 58] | pKa [2, 5]: 6.8
8 | 99% | 6.4 | CCCCCCCCC(CCCCCCCC)OC(=O)CCCC(=O)OCC(COC(=O)CCCC(=O)OC(CCCCCCCC)CCCCCCCC)COC(=O)OCCCN(C)CC [Compound 30, O,O′-(2-((((3-(ethyl(methyl)amino)propoxy)carbonyl)oxy)methyl)propane-1,3-diyl) di(heptadecan-9-yl) diglutarate] | 
9 | 99% | 6.2 | CCCCCCCCC(CCCCCCCC)OC(=O)CCCC(=O)OCC(COC(=O)CCCC(=O)OC(CCCCCCCC)CCCCCCCC)COC(=O)NCCN1CCCCC1 [Compound 28, di(heptadecan-9-yl) O,O′-(2-((((2-(piperidin-1-yl)ethyl)carbamoyl)oxy)methyl)propane-1,3-diyl) diglutarate] | 
10 | 97% | 6.38 | CCCCC/C=C\C/C=C\CCCCCCCC(=O)OCC(COC(=O)CCCC(=O)OC(CCCCCCCC)CCCCCCCC)COC(=O)N(C)CCN(CC)CC (centres unmarked) [Compound 49, 3-(((2-(diethylamino)ethyl)(methyl)carbamoyl)oxy)-2-((((9Z,12Z)-octadeca-9,12-dienoyl)oxy)methyl)propyl heptadecan-9-yl Glutarate] | 
11 |  | 5.97 | CCCCCCCCC(CCCCCCCC)C(=O)OCC(COC(=O)NCCN(CC)CC)COC(=O)C(CCCCCCCC)CCCCCCCC [Compound 40, 2-((((2-(diethylamino)ethyl)carbamoyl)oxy)methyl)propane-1,3-diyl bis(2-octyldecanoate)] | % E (encapsulation efficiency) [1, 6]: 92%
12 | 96% |  | CCCCC/C=C\C/C=C\CCCCCCCC(=O)OCC(COC(=O)CCCCCC(=O)OC(CCCCCCCC)CCCCCCCC)COC(=O)OCCCN(CC)CC (centres unmarked) [Compound 57] | pKa [2, 5]: 6.1
13 | 99% | 6.05 | CCCCC/C=C\C/C=C\CCCCCCCC(=O)OCC(COC(=O)CCCCCC(=O)OCC(CCCC)CCCCCC)COC(=O)OCCCN(CC)CC (centres unmarked) [Compound 4, 1-(2-butyloctyl) 7-(3-(((3-(diethylamino)propoxy)carbonyl)oxy)-2-((((9Z,12Z)-octadeca-9,12-dienoyl)oxy)methyl)propyl) heptanedioate] | 
14 | 99% | 6.13 | CCCCC/C=C\C/C=C\CCCCCCCC(=O)OCC(CCCCCCCCC(=O)OC(CCCCCCCC)CCCCCCCC)COC(=O)OCCCN(C)CC (centres unmarked) [Compound 11, 2-((((3-(ethyl(methyl)amino)propoxy)carbonyl)oxy)methyl)-11-(heptadecan-9-yloxy)-11-oxoundecyl (9Z,12Z)-octadeca-9,12-dienoate] | 
15 |  | 6.33 | CCCCCCCCC(CCCCCCCC)OC(=O)CCCC(=O)OCC(COC(=O)CCCC(=O)OC(CCCCCCCC)CCCCCCCC)COC(=O)CCCN(C)C [Compound 34, O,O′-(2-(((4-(dimethylamino)butanoyl)oxy)methyl)propane-1,3-diyl) di(heptadecan-9-yl) diglutarate] | % E (encapsulation efficiency) [1, 6]: 98%
16 | 88% |  | CCCCC/C=C\C/C=C\CCCCCCCC(=O)OCC(COC(=O)CCC(OCCCCCCCC)OCCCCCCCC)COC(=O)NCCN(CC)CC (centres unmarked) [Compound 54] | pKa [2, 5]: 6.5
17 | 99% | 5.98 | CCCCC/C=C\C/C=C\CCCCCCCC(=O)OCC(CCCCCCC(=O)OC(CCCCCCCC)CCCCCCCC)COC(=O)OCCCN(CC)CC (centres unmarked) [Compound 16, 2-((((3-(diethylamino)propoxy)carbonyl)oxy)methyl)-9-(heptadecan-9-yloxy)-9-oxononyl (9Z,12Z)-octadeca-9,12-dienoate] | 
18 | 97% |  | CCCCCCCCC(CCCCCCCC)OC(=O)CCCCCCC(=O)OCC(COC(=O)CCCCCCC(=O)OC(CCCCCCCC)CCCCCCCC)COC(=O)OCCCN(CC)CC [Compound 60] | % E (encapsulation efficiency) ([1]; Table 5, PEG lipid C13 Ether): 95%; % E (encapsulation efficiency) ([1]; Table 5, PEG lipid C14 Ether): 96%; % E (encapsulation efficiency) ([1]; Table 5, PEG lipid PEG2K-DMG): 96%; pKa [2, 5]: 6.1
19 | 100% | 6.5 | CCCCCCCCC(CCCCCCCC)OC(=O)CCCC(=O)OCC(COC(=O)CCCC(=O)OC(CCCCCCCC)CCCCCCCC)COC(=O)OCCCN1CCCC1 [Compound 33, di(heptadecan-9-yl) O,O′-(2-((((3-(pyrrolidin-1-yl)propoxy)carbonyl)oxy)methyl)propane-1,3-diyl) diglutarate] | % E (encapsulation efficiency) [1, 4]: 99%
